For data set [1] the following is noted: cited from earlier work; for aqueous solubility in water: Source: Drugbank.
The conditions of data set [2]: cited from earlier work; for pKa: Source: Drugbank or FDA.
A short description of data set [3]: physchem.

We go through six compounds from patent US20200009125A1, “Pharmaceutical Compositions For Poorly Water-Soluble Compounds” (ASCENDIA PHARMACEUTICALS, LLC, priority 2013, published 2020).

Molecules are shown by their SMILES. ≈ marks a conversion by molar mass, not a printed value.

Turning to `CCC(C)n1ncn(-c2ccc(N3CCN(c4ccc(OCC5COC(Cn6cncn6)(c6ccc(Cl)cc6Cl)O5)cc4)CC3)cc2)c1=O` (centres unmarked) [itraconazole], the “solubility in gastric fluid” value in data set [1] (gastric fluid) was 3500 µg/mL (≈ 4960 µM). For the same compound, the “solubility in intestinal fluid” value in data set [1] (intestinal fluid) is 0.2 µg/mL (≈ 0.283 µM).

For `CC(=O)Oc1cc2c(s1)CCN(C(C(=O)C1CC1)c1ccccc1F)C2` (centres unmarked) [Prasugrel, prasugrel], the pKa (as a rule, the pH at which an ionisable group is half protonated) in data set [2] is on record as 5.48. Also, the “aqueous solubility in water” value in data set [1] was 2.37 µg/mL (≈ 6.35 µM).

In the case of `CC(C)Cc1ccc(C(C)C(=O)O)cc1` (centres unmarked) [Ibuprofen, ibuprofen], the “solubility of ibuprofen alone at pH 1.2” value in data set [1] (pH 1.2, drug alone, same figure as Drugbank water solubility) is 0.021 mg/mL.

Take `O=C(O)Cc1ccccc1Nc1c(Cl)cccc1Cl` [Diclofenac, diclofenac]: in data set [1] (as sodium salt, intestinal fluid of neutral pH), the “solubility in intestinal fluid of neutral pH” value is 1113 μg/mL.

As for `COC(=O)[C@H](c1ccccc1Cl)N1CCc2sccc2C1` [Clopidogrel, clopidogrel], the pKa in data set [2] is on record as 4.5. The solubility (as a rule, the dissolved amount per volume that the medium holds) is 5200 µg/mL (≈ 16200 µM) in data set [3] (aqueous solution at pH 1.2, pH 1.2, simulated gastric fluid) and 14 µg/mL (≈ 43.5 µM) in data set [3] (aqueous solution at pH 6.8, pH 6.8, aqueous buffer).

`COc1ccc(-n2nc(C(N)=O)c3c2C(=O)N(c2ccc(N4CCCCC4=O)cc2)CC3)cc1` [Apixaban, apixaban]: the “detectable pKa” value in data set [2] (within pH range of 0.0-10.0, Source: Drugbank) is listed as “no detectable pKa”. In data set [1], the “aqueous solubility in water” value is 40 to 50 µg/mL.
